Experimental data published in patent US9040528B2, “Chemical compounds 542” (AstraZeneca AB, priority 2008, dated 2015).

Biological target: Escherichia coli DNA gyrase A/B tetramer (Escherichia coli (strain K12), UniProt P0AES4+P0AES6)
Assay: DNA gyrase supercoiling activity fluorescence polarisation assay
Format: biochemical
Settings: not given
In short: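 Supercoiling reactions quenched with 40 nM 5′-BODIPY-FL triplex-forming oligonucleotide probe in pH 3.5 NaCl/sodium acetate buffer; after 60 min, fluorescence anisotropy read (ex 485/em 535 nm). IC50 by nonlinear regression, normalised to 0.8% DMSO (100% activity) and 5 μM ciprofloxacin (0% activity).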

**Q.** How did the IC50 turn out when `C[C@@H]1CN2c3c(cc4c(CO)noc4c3F)CC3(C(=O)NC(=O)NC3=O)[C@H]2[C@H](C)O1` (relative stereo) [Example 185, (2R,4S,4aS)-rel-11-fluoro-8-(hydroxymethyl)-2,4-dimethyl-2,4,4a,6-tetrahydro-1H,1′H-spiro[isoxazolo[4,5-g][1,4]oxazino[4,3-a]quinoline-5,5′-pyrimidine]-2′,4′,6′(3′H)-trione] was run?
**A.** 1400 nM

Same assay, conditions: 5 nM enzyme, relaxed plasmid, 0.3 mM ATP, ambient temperature; read-out: E. coli DNA gyrase supercoiling IC50

**Q.** With `C[C@@H]1CN2c3c(cc4c(-c5ncccn5)noc4c3Cl)CC3(C(=O)NC(=O)NC3=O)[C@H]2[C@H](C)O1` (racemic) [Example 42, (2R,4S,4 aS)-rel-11-chloro-2,4-dimethyl-8-(pyrimidin-2-yl)-1,2,4,4a-tetrahydro-2′H,6H-spiro[1,4-oxazino[4,3-a][1,2]oxazolo[4,5-g]quinoline-5,5′-pyrimidine]-2′,4′,6′(1′H,3′H)-trione] as the molecule, how does the IC50 read?
**A.** 1200 nM

**Q.** `COC1CCN(C(=O)c2noc3c(F)c4c(cc23)CC2(C(=O)NC(=O)NC2=O)[C@H]2[C@H](C)O[C@H](C)CN42)CC1` (relative stereo) [Example 151, (2R,4S,4aS)-rel-11-fluoro-8-(4-methoxypiperidine-1-carbonyl)-2,4-dimethyl-2,4,4a,6-tetrahydro-1H,1′H-spiro[isoxazolo[4,5-g][1,4]oxazino[4,3-a]quinoline-5,5′-pyrimidine]-2′,4′,6′(3′H)-trione] was tested. Which IC50 did it give?
**A.** 5500 nM

**Q.** With `C[C@@H]1CN2c3c(cc4c(-c5nccn5C)noc4c3F)CC3(C(=O)NC(=O)NC3=O)[C@@H]2[C@H](C)O1` (relative stereo) [Example 68, (2R,4S,4aR)-rel-11-fluoro-2,4-dimethyl-8-(1-methyl-1H-imidazol-2-yl)-1,2,4,4a-tetrahydro-2′H,6H-spiro[1,4-oxazino[4,3-a][1,2]oxazolo[4,5-g]quinoline-5,5′-pyrimidine]-2′,4′,6′(1′H,3′H)-trione] as the molecule, how does the IC50 read?
**A.** 700 nM

**Q.** `CC(=O)Nc1ccn(-c2noc3c(F)c4c(cc23)CC2(C(=O)NC(=O)NC2=O)[C@H]2[C@H](C)O[C@H](C)CN42)n1` (relative stereo) [Example 28, N-{1-[(2R,4S,4aS)-rel-11-fluoro-2,4-dimethyl-2′,4′,6′-trioxo-1,1′,2,3′,4,4′,4a,6′-octahydro-2′H,6H-spiro[1,4-oxazino[4,3-a][1,2]oxazolo[4,5-g]quinoline-5,5′-pyrimidin]-8-yl]-1H-pyrazol-3-yl}acetamide] was tested. Which IC50 did it give?
**A.** 3100 nM

**Q.** `C[C@@H]1CN2c3c(nc4c(-c5ccc(C#N)c(F)c5)noc4c3Cl)CC3(C(=O)NC(=O)NC3=O)[C@H]2[C@H](C)O1` (relative stereo) [Example 121, 4-((2R,4S,4aS)-rel-11-chloro-2,4-dimethyl-2′,4′,6′-trioxo-2,2′,3′,4,4a,4′,6,6′-octahydro-1H,1′H-spiro[isoxazolo[4,5-g][1,4]oxazino[4,3-a][1,5]naphthyridine-5,5′-pyrimidine]-8-yl)-2-fluorobenzonitrile] was tested. Which IC50 did it give?
**A.** 600 nM

**Q.** With `Cc1noc(C)c1-c1noc2c(F)c3c(cc12)CC1(C(=O)NC(=O)NC1=O)[C@H]1[C@H](C)O[C@H](C)CN31` (relative stereo) [Example 67, (2R,4S,4aS)-rel-8-(3,5-dimethyl-1,2-oxazol-4-yl)-11-fluoro-2,4-dimethyl-1,2,4,4a-tetrahydro-2′H,6H-spiro[1,4-oxazino[4,3-a][1,2]oxazolo[4,5-g]quinoline-5,5′-pyrimidine]-2′,4′,6′(1′H,3′H)-trione] as the molecule, how does the IC50 read?
**A.** 3200 nM

**Q.** For `CC(=O)N1CCN(c2noc3c(F)c4c(cc23)CC2(C(=O)NC(=O)NC2=O)[C@H]2[C@H](C)O[C@H](C)CN42)CC1` (relative stereo) [Example 8, (2R,4S,4aS)-rel-8-(4-acetylpiperazin-1-yl)-11-fluoro-2,4-dimethyl-1,2,4,4a-tetrahydro-2′H,6H-spiro[isoxazolo[4,5-g][1,4]oxazino[4,3-a]quinoline-5,5′-pyrimidine]-2′,4′,6′(1′H,3′H)-trione], which IC50 is on record?
**A.** 8300 nM

**Q.** How did the IC50 turn out when `Cc1cc(-c2noc3c(F)c4c(cc23)CC2(C(=O)NC(=O)NC2=O)[C@H]2[C@H](C)O[C@H](C)CN42)no1` (relative stereo) [Example 66, (2R,4S,4aS)-rel-11-fluoro-2,4-dimethyl-8-(5-methyl-1,2-oxazol-3-yl)-1,2,4,4a-tetrahydro-2′H,6H-spiro[1,4-oxazino[4,3-a][1,2]oxazolo[4,5-g]quinoline-5,5′-pyrimidine]-2′,4′,6′(1′H,3′H)-trione] was run?
**A.** 400 nM

**Q.** Which IC50 does the source give for `C[C@@H]1CN2c3c(cc4c(N(C)Cc5ccccc5)noc4c3F)CC3(C(=O)NC(=O)NC3=O)[C@H]2[C@H](C)O1` (relative stereo) [Example 32, (2R,4S,4aS)-rel-8-[benzyl(methyl)amino]-11-fluoro-2,4-dimethyl-1,2,4,4a-tetrahydro-2′H,6H-spiro[1,4-oxazino[4,3-a][1,2]oxazolo[4,5-g]quinoline-5,5′-pyrimidine]-2′,4′,6′(1′H,3′H)-trione] here?
**A.** 600 nM

**Q.** How did the IC50 turn out when `C[C@@H]1CN2c3c(cc4c(-c5ccncn5)noc4c3Cl)CC3(C(=O)NC(=O)NC3=O)[C@H]2[C@H](C)O1` (relative stereo) [Example 43, (2R,4S,4aS)-rel-11-chloro-2,4-dimethyl-8-(pyrimidin-4-yl)-1,2,4,4a-tetrahydro-2′H,6H-spiro[1,4-oxazino[4,3-a][1,2]oxazolo[4,5-g]quinoline-5,5′-pyrimidine]-2′,4′,6′(1′H,3′H)-trione] was run?
**A.** 500 nM

**Q.** For `C[C@@H]1CN2c3c(cc4c(-n5nccn5)noc4c3F)CC3(C(=O)NC(=O)NC3=O)[C@H]2[C@H](C)O1` (racemic) [Example 56, (2R,4S,4 aS)-rel-11-fluoro-2,4-dimethyl-8-(2H-1,2,3-triazol-2-yl)-1,2,4,4a-tetrahydro-2′H,6H-spiro[1,4-oxazino[4,3-a][1,2]oxazolo[4,5-g]quinoline-5,5′-pyrimidine]-2′,4′,6′(1′H,3′H)-trione], which IC50 is on record?
**A.** 700 nM

**Q.** `C[C@@H]1CN2c3c(cc4c(-n5cc(-c6ccncn6)cn5)noc4c3F)CC3(C(=O)NC(=O)NC3=O)[C@H]2[C@H](C)O1` (relative stereo) [Example 34, (2R,4S,4aS)-rel-11-fluoro-2,4-dimethyl-8-[4-(pyrimidin-4-yl)-1H-pyrazol-1-yl]-1,2,4,4a-tetrahydro-2′H,6H-spiro[1,4-oxazino[4,3-a][1,2]oxazolo[4,5-g]quinoline-5,5′-pyrimidine]-2′,4′,6′(1′H,3′H)-trione] was tested. Which IC50 did it give?
**A.** 16300 nM

**Q.** With `C[C@@H]1CN2c3c(cc4c(-c5ccncc5)noc4c3Cl)CC3(C(=O)NC(=O)NC3=O)[C@H]2[C@H](C)O1` (relative stereo) [Example 46, (2R,4S,4aS)-rel-11-chloro-2,4-dimethyl-8-(pyridin-4-yl)-1,2,4,4a-tetrahydro-2′H,6H-spiro[1,4-oxazino[4,3-a][1,2]oxazolo[4,5-g]quinoline-5,5′-pyrimidine]-2′,4′,6′(1′H,3′H)-trione] as the molecule, how does the IC50 read?
**A.** 1000 nM

**Q.** How did the IC50 turn out when `COCCNC(=O)c1noc2c(F)c3c(cc12)CC1(C(=O)NC(=O)NC1=O)[C@H]1[C@H](C)O[C@H](C)CN31` (relative stereo) [Example 143, (2R,4S,4aS)-rel-11-fluoro-N-(2-methoxyethyl)-2,4-dimethyl-2′,4′,6′-trioxo-2,2′,3′,4,4a,4′,6,6′-octahydro-1H,1′H-spiro[isoxazolo[4,5-g][1,4]oxazino[4,3-a]quinoline-5,5′-pyrimidine]-8-carboxamide] was run?
**A.** 1000 nM

**Q.** With `C[C@@H]1CN2c3c(cc4c(C(=O)NCC(F)F)noc4c3F)CC3(C(=O)NC(=O)NC3=O)[C@H]2[C@H](C)O1` (racemic) [Example 94, (2R,4 S,4 aS)-rel-N-(2,2-difluoroethyl)-11-fluoro-2,4-dimethyl-2′,4′,6′-trioxo-2,2′,3′,4,4a,4′,6,6′-octahydro-1H,1′H-spiro[isoxazolo[4,5-g][1,4]oxazino[4,3-a]quinoline-5,5′-pyrimidine]-8-carboxamide] as the molecule, how does the IC50 read?
**A.** 1600 nM

**Q.** With `C[C@@H]1CN2c3c(cc4c(-c5cnccn5)noc4c3F)CC3(C(=O)NC(=O)NC3=O)[C@H]2[C@H](C)O1` [Example 165(b), (2R,4S,4aS)-11-fluoro-2,4-dimethyl-8-(pyrazin-2-yl)-2,4,4a,6-tetrahydro-1H,1′H-spiro[isoxazolo[4,5-g][1,4]oxazino[4,3-a]quinoline-5,5′-pyrimidine]-2′,4′,6′(3′H)-trione] as the molecule, how does the IC50 read?
**A.** 200 nM

**Q.** How did the IC50 turn out when `C[C@@H]1CN2c3c(cc4c(-c5ncc(C(=O)N(C)C)s5)noc4c3F)CC3(C(=O)NC(=O)NC3=O)[C@H]2[C@H](C)O1` (relative stereo) [Example 87, 2-[(2R,4S,4aS)-rel-11-fluoro-2,4-dimethyl-2′,4′,6′-trioxo-1,1′,2,3′,4,4′,4a,6′-octahydro-2′H,6H-spiro[1,4-oxazino[4,3-a][1,2]oxazolo[4,5-g]quinoline-5,5′-pyrimidin]-8-yl]-N,N-dimethyl-1,3-thiazole-5-carboxamide] was run?
**A.** 6700 nM

**Q.** With `C[C@@H]1CN2c3c(cc4c(NCc5ccccn5)noc4c3F)CC3(C(=O)NC(=O)NC3=O)[C@H]2[C@H](C)O1` (racemic) [Example 14, (2R,4 S,4aS)-rel-11-fluoro-2,4-dimethyl-8-[(pyridin-2-ylmethyl)amino]-1,2,4,4a-tetrahydro-2′H,6H-spiro[1,4-oxazino[4,3-a][1,2]oxazolo[4,5-g]quinoline-5,5′-pyrimidine]-2′,4′,6′(1′H,3′H)-trione] as the molecule, how does the IC50 read?
**A.** 2000 nM

**Q.** Which IC50 does the source give for `C[C@@H]1CN2c3c(cc4c(NCc5c[nH]cn5)noc4c3F)CC3(C(=O)NC(=O)NC3=O)[C@H]2[C@H](C)O1` (relative stereo) [Example 11, (2R,4S,4aS)-rel-11-fluoro-8-[(1H-imidazol-4-ylmethyl)amino]-2,4-dimethyl-1,2,4,4a-tetrahydro-2′H,6H-spiro[1,4-oxazino[4,3-a][1,2]oxazolo[4,5-g]quinoline-5,5′-pyrimidine]-2′,4′,6′(1′H,3′H)-trione] here?
**A.** 800 nM

**Q.** `C[C@@H]1CN2c3c(nc4c(-c5ccc(C(N)=O)nc5)noc4c3Cl)CC3(C(=O)NC(=O)NC3=O)[C@H]2[C@H](C)O1` (relative stereo) [Example 123, 5-((2R,4S,4aS)-rel-11-chloro-2,4-dimethyl-2′,4′,6′-trioxo-2,2′,3′,4,4a,4′,6,6′-octahydro-1H,1′H-spiro[isoxazolo[4,5-g][1,4]oxazino[4,3-a][1,5]naphthyridine-5,5′-pyrimidine]-8-yl)picolinamide] was tested. Which IC50 did it give?
**A.** 5800 nM
